Laboratory results from ChEMBL document CHEMBL5291721, “A preclinical secondary pharmacology resource illuminates target-adverse drug reaction associations of marketed drugs” (Nat Commun, 2023).
Values joined by “and” are separate entries in the source; they are usually repeats but may differ in a detail not shown here. Equal values may be shown once.

Assays:
[1] = biological target: T1, Alpha-2B adrenergic receptor (Homo sapiens, UniProt P18089)
T1 sequence (P18089 whole entry): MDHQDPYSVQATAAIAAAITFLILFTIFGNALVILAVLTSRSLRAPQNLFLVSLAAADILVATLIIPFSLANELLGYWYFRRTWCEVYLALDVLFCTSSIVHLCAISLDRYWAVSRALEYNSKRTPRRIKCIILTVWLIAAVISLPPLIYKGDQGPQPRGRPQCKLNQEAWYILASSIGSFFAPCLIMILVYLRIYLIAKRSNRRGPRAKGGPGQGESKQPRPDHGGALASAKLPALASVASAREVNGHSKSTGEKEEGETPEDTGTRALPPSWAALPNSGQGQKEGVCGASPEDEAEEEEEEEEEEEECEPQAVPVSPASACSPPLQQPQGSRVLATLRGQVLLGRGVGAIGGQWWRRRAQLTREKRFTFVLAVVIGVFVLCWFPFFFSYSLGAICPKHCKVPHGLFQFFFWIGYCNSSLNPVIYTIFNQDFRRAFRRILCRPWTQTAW

[2] = biological target: Beta-1 adrenergic receptor (Homo sapiens, UniProt P08588); assay type: functional
[3] = biological target: D(1A) dopamine receptor (Homo sapiens, UniProt P21728); assay type: functional, cell-based
[4] = biological target: T2, Gamma-aminobutyric acid receptor subunit alpha-1 (Rattus norvegicus, UniProt P62813)
[5] = biological target: T2, Gamma-aminobutyric acid receptor subunit alpha-1; assay type: functional
[6] = biological target: 5-hydroxytryptamine receptor 2A (Homo sapiens, UniProt P28223); assay type: functional, cell-based
[7] = biological target: Kappa-type opioid receptor (Homo sapiens, UniProt P41145)
[8] = biological target: Mu-type opioid receptor (Homo sapiens, UniProt P35372)
[9] = biological target: 5-hydroxytryptamine receptor 2B (Homo sapiens, UniProt P41595); assay type: functional, cell-based
[10] = biological target: T3, Progesterone receptor (Homo sapiens, UniProt P06401)
T3 sequence (P06401 whole entry): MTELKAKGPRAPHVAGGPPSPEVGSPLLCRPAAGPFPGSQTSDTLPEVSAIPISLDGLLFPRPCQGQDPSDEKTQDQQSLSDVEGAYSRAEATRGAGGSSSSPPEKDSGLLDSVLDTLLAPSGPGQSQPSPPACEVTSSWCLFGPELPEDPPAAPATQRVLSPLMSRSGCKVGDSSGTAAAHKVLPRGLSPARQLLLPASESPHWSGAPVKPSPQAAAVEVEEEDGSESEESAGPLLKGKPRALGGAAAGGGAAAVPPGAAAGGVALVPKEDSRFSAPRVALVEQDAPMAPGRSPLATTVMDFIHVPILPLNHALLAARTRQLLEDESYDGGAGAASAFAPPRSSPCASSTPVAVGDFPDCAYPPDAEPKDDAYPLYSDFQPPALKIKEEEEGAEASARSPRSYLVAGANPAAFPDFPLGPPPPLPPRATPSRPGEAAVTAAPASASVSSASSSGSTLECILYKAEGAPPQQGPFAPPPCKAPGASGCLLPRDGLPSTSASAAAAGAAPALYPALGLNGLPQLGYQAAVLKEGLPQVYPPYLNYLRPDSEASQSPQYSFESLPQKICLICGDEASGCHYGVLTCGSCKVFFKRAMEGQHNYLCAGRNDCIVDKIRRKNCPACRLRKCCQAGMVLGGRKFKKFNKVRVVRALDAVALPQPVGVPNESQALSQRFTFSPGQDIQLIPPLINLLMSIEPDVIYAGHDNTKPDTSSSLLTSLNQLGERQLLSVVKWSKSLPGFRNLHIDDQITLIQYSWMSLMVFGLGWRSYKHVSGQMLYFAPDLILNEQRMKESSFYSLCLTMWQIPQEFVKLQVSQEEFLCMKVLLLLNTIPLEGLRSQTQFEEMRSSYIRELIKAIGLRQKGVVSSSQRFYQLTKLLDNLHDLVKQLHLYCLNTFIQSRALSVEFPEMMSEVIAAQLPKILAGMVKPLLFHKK

[11] = biological target: Sodium-dependent dopamine transporter (Homo sapiens, UniProt Q01959)
Further: assay procedure not described here.

Mu-type opioid receptor, sequence (P35372 whole entry): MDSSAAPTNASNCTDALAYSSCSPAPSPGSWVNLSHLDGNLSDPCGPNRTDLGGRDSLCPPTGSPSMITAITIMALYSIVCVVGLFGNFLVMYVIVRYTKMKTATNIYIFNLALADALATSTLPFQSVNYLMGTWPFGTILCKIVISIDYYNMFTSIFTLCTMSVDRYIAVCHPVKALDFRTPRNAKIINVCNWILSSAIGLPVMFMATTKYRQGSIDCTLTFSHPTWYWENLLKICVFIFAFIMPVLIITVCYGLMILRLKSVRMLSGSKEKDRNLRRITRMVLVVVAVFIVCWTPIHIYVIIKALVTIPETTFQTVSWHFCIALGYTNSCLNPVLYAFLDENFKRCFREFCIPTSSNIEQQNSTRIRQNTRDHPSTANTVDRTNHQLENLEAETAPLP
D(1A) dopamine receptor, sequence (P21728 whole entry): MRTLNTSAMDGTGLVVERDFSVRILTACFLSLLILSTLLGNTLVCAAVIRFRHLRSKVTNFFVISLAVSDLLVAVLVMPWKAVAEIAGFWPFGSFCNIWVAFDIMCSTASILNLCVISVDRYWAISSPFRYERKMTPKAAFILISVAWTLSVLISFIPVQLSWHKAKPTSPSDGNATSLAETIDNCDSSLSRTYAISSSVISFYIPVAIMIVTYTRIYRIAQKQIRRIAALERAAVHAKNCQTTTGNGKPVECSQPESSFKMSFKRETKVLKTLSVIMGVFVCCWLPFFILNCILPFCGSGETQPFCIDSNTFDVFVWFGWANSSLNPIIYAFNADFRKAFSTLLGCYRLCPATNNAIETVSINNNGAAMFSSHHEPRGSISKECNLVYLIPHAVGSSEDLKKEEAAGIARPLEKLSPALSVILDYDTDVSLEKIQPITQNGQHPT
5-hydroxytryptamine receptor 2A, sequence (P28223 whole entry): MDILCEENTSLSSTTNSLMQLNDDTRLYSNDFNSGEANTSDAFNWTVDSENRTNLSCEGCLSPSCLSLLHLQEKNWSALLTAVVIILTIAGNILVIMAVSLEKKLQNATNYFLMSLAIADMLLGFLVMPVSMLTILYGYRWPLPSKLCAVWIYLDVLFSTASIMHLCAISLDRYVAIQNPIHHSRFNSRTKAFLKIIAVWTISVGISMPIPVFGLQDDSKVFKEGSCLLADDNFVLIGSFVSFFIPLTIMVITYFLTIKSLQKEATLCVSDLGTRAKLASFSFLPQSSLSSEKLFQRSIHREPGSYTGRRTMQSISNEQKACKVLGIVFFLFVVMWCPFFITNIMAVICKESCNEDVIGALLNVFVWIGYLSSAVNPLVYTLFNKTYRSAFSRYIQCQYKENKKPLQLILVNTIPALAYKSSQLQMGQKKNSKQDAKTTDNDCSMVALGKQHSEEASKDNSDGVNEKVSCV
T2 sequence (P62813 whole entry): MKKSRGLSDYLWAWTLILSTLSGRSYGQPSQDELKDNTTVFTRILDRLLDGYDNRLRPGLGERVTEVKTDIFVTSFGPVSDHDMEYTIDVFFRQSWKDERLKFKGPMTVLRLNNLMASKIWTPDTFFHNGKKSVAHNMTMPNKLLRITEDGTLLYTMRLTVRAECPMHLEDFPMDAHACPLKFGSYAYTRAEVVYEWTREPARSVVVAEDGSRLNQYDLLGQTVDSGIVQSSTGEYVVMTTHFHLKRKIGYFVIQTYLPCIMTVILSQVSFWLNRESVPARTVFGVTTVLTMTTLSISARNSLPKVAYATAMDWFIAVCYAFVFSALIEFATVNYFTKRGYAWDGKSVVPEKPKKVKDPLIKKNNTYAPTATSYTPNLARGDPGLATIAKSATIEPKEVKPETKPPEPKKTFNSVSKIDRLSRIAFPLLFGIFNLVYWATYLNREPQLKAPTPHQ
Beta-1 adrenergic receptor, sequence (P08588 whole entry): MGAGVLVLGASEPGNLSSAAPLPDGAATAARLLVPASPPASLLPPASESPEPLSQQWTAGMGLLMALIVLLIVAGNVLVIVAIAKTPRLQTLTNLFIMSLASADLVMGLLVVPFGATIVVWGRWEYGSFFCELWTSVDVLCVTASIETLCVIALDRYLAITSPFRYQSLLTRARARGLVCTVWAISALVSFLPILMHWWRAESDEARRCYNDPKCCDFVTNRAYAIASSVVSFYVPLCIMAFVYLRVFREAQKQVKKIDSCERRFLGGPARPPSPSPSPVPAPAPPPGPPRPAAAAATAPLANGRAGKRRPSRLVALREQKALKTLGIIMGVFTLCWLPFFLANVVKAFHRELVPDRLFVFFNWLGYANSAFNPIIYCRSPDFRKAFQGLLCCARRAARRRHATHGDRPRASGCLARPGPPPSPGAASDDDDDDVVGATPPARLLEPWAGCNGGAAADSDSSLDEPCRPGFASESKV
Kappa-type opioid receptor, sequence (P41145 whole entry): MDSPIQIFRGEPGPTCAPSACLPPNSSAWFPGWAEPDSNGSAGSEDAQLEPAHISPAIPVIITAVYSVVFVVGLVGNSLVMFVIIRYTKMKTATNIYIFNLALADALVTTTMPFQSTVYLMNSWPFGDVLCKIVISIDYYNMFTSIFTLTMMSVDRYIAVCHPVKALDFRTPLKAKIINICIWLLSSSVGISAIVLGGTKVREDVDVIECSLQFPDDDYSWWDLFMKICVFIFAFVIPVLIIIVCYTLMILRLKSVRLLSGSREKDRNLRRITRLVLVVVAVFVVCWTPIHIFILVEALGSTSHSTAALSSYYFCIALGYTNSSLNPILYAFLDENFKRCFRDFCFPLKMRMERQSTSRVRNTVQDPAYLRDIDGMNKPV
5-hydroxytryptamine receptor 2B, sequence (P41595 whole entry): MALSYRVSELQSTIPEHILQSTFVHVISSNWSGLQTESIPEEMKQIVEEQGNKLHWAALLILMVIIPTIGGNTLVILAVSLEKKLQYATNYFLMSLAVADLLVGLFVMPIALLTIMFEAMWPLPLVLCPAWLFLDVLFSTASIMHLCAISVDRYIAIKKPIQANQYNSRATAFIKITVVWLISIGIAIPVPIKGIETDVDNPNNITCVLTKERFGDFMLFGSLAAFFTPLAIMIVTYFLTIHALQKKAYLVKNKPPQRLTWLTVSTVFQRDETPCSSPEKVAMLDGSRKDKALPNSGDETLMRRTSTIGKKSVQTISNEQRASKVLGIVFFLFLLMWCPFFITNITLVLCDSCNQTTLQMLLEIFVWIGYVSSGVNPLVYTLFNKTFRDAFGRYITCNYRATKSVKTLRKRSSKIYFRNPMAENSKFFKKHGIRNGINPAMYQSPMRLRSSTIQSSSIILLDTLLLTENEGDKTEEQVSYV
Sodium-dependent dopamine transporter, sequence (Q01959 whole entry): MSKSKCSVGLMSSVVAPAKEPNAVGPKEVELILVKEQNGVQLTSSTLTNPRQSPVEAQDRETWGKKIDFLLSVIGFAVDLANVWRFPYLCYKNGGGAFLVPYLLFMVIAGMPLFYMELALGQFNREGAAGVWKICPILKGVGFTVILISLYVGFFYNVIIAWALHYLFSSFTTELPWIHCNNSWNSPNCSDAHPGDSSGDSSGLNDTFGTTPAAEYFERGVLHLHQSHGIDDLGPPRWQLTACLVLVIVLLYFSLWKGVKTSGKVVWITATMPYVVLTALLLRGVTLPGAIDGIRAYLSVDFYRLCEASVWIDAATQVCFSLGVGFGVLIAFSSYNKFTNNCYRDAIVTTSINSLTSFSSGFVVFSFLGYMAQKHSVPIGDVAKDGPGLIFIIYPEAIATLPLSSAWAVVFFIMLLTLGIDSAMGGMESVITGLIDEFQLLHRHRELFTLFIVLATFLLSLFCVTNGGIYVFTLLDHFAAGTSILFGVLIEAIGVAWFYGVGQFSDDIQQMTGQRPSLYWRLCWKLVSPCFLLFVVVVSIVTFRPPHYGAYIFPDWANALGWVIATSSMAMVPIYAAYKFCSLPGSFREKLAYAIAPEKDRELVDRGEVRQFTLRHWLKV

SMILES	AC50 [1] [µM]	AC50 [2] [µM]	AC50 [3] [µM]	AC50 [4] [µM]	AC50 [5] [µM]	AC50 [6]	AC50 [7] [µM]	AC50 [8] [µM]	AC50 [9] [µM]	AC50 [10] [µM]	AC50 [11] [µM]
CC1OC2(CS1)CN1CCC2CC1 (centres undefined) [CEVIMELINE]	> 30	> 10	> 30	> 10	> 10	> 10 µM	> 10	> 30	–	–	–
CCC(C)C1(CC)C(=O)NC(=O)NC1=O (centres undefined) [BUTABARBITAL]	–	> 30	> 30	–	–	> 30 µM	–	–	–	–	–
Cc1cccc(N2CC(CO)OC2=O)c1 (centres undefined) [TOLOXATONE]	> 30	> 30	> 30	> 30	> 30	> 30 µM	> 30	–	–	–	–
COc1cc(N)c(Cl)cc1C(=O)NC1CCN(Cc2ccccc2)CC1 [CLEBOPRIDE]	18	–	–	> 30	0.13	2.4 µM	22	–	–	–	–
C[C@]12CC[C@@H]3c4ccc(O)cc4C[C@@H](CCCCCCCCC[S+]([O-])CCCC(F)(F)C(F)(F)F)[C@H]3[C@@H]1CC[C@@H]2O (some centres undefined) [FULVESTRANT]	> 30	> 30	> 30	> 30	> 30	> 30 µM	> 30	–	–	–	–
C=CCNc1nc(NCC=C)nc(N2CCN(C(c3ccc(F)cc3)c3ccc(F)cc3)CC2)n1 [ALMITRINE]	> 30	> 30	> 30	> 30	> 30	> 30 µM	18	–	–	–	–
COCC1=C(C(=O)O)N2C(=O)[C@@H](NC(=O)/C(=N\OC)c3csc(N)n3)[C@H]2SC1 [CEFPODOXIME]	> 30	> 30	> 30	> 30	> 30	> 30 µM	> 30	–	–	–	–
Nc1ncn([C@H]2C[C@H](O)[C@@H](CO)O2)c(=O)n1 [DECITABINE]	> 30	19.1	> 30	> 30	> 30	> 30 µM	> 30	–	–	–	–
CCOC(=O)c1cncn1[C@H](C)c1ccccc1 [ETOMIDATE]	> 10	> 10	> 10	–	–	> 10 µM	> 10	> 30	–	–	–
Clc1ccc2c(N3CCN(CCCN4CCN(c5ccnc6cc(Cl)ccc56)CC4)CC3)ccnc2c1 [PIPERAQUINE]	> 30	> 30	> 30	> 30	> 30	> 30 µM	17	–	–	–	–
CC1(C)S[C@@H]2[C@H](NC(=O)[C@H](N)c3ccccc3)C(=O)N2[C@H]1C(=O)OCOC(=O)[C@@H]1N2C(=O)C[C@H]2S(=O)(=O)C1(C)C [SULTAMICILLIN]	> 30	–	> 30	–	> 30	> 30 µM	> 30	–	–	–	–
CC(C)[C@H](N)C(=O)OCC(CO)OCn1cnc2c(=O)nc(N)[nH]c21 (some centres undefined) [VALGANCICLOVIR]	> 30	> 30	> 30	> 30	> 30	> 30 µM	> 30	–	–	–	–
CC(=O)N[C@@H](CS)C(=O)O [ACETYLCYSTEINE]	> 10	> 30	> 30	> 30	> 30	> 30 µM	> 30	–	–	–	–
CCC1(c2ccccc2)CCC(=O)NC1=O (centres undefined) [GLUTETHIMIDE]	> 10	> 10	> 10	> 10	> 10	> 30 µM	> 10	> 30	–	–	–
O=[N+]([O-])c1ccc(O)c2ncccc12 [NITROXOLINE]	8.8	–	> 30	> 30	> 30	> 30 µM	9.3	–	> 30	> 30	> 30
C/N=C(\NC)NCc1ccccc1 [BETHANIDINE]	> 30	–	> 30	–	> 30	> 30 µM	> 30	–	–	–	–
CCC(=O)O[C@H]1CC[C@H]2[C@@H]3CCC4=CC(=O)CC[C@]4(C)[C@H]3CC[C@]12C [TESTOSTERONE PROPIONATE]	> 10	> 10	> 10	> 10	> 30	> 30 µM	7.71	> 30	–	–	–
CNCc1ccc(-c2[nH]c3cc(F)cc4c3c2CCNC4=O)cc1 [RUCAPARIB]	–	40.1	–	–	–	> 10 µM	–	> 30	–	–	–
C#C[C@]1(OC(C)=O)CC[C@H]2[C@@H]3CCC4=C/C(=N/O)CC[C@@H]4[C@H]3CC[C@@]21CC [NORGESTIMATE]	> 30	> 30	> 30	> 30	> 30	> 30 µM	> 30	–	–	–	–
CCC(C)C(CC)C(N)=O (centres undefined) [VALNOCTAMIDE]	> 30	> 30	> 30	> 30	> 30	> 30 µM	> 30	–	–	–	–
Clc1ccc(C(Cn2ccnc2)OCc2ccsc2Cl)c(Cl)c1 (centres undefined) [TIOCONAZOLE]	> 30	24.3	> 30	> 30	> 30	19 µM	1.8	–	–	–	–
CC(C)(C)C(=O)OCC(=O)[C@H]1CC[C@H]2[C@@H]3CCC4=CC(=O)CC[C@]4(C)[C@H]3CC[C@]12C [DESOXYCORTICOSTERONE PIVALATE]	> 10	> 10	> 10	> 10	> 10	> 10 µM	> 10	> 30	–	–	–
C[C@]12CCC(=O)C(O)=C1CC[C@@H]1[C@@H]2CC[C@]2(C)C(=O)CC[C@@H]12 [FORMESTANE]	> 30	> 30	> 30	> 30	> 30	> 30 µM	–	–	–	–	–
CC(C)COCC(CN(Cc1ccccc1)c1ccccc1)N1CCCC1 (centres undefined) [BEPRIDIL]	6.2	–	> 30	–	–	22 µM	–	–	–	–	–
CCOC(=O)C1=C[C@]2(CC)CCCN3CCc4c(n1c1ccccc41)[C@@H]32 [VINPOCETINE]	2.4	> 30	> 30	> 30	> 30	> 30 µM	> 30	–	–	–	–
C[C@H](Cc1ccc(O)c(O)c1)[C@@H](C)Cc1ccc(O)c(O)c1 [MASOPROCOL]	8.1	> 30	> 10	> 10	> 10	13 µM and > 30 µM and 21 µM	15	> 30	–	–	–
